Patent US20240307370A1, “SIGMA RECEPTOR LIGANDS FOR TREATING SARS-COV-2 INFECTION” (University of Florida Research Foundation, Incorporated, priority 2021, published 2024)
In brackets after ≈: the same amount, converted by molar mass. Read-outs that look alike come from different tables or passages of the source.

Experiments:
H23 cells = assay: Phospholipidosis assay; conditions: 48 h treatment, 100 μg/ml
SARS-CoV-2 [1] = type: cell-based; conditions: Vero E6, MOI 0.2, 72 h
SARS-CoV-2 [2] = type: cell-based
SARS-CoV-2 [3] = conditions: Vero E6, MOI 0.2, 72 h
SARS-CoV-2 [4] = conditions: cited from earlier work
SARS-CoV-2 [5] = conditions: cited from earlier work; remark: listed apart in the source
SARS-CoV-2 [6] = conditions: previously published study; cited from earlier work
sigma-1 over sigma-2 = conditions: cited from earlier work
Vero E6 cells = assay: Toxicity of ligand alone (LDH release, CC50); conditions: drug alone, Vero E6, 72 h, LDH release
SARS-CoV-2 [7] = type: cell-based; conditions: H23-hACE2, MOI 0.01, 48 hpi, vs mock treated
SARS-CoV-2 [8] = assay: Plaque reduction assay in Vero E6 monolayers; type: cell-based; conditions: Vero E6, plaques counted at 72 h; for EC50: Severe acute respiratory syndrome coronavirus 2, Vero C1008, 72 h
SARS-CoV-2 [9] = assay: microbe, parasite or virus in culture; conditions: Severe acute respiratory syndrome coronavirus 2, Vero C1008, 72 h
SARS-CoV-2 [10] = assay: K18-hACE2 mouse SARS-CoV-2 infection model; type: in vivo, mice
[11] = Toxicity of ligand alone (LDH release, CC50); conditions: African green monkey
[12] = read-out: Cytotoxicity EC50 (inhibition of SARS-CoV-2-induced cytotoxicity)
[13] = read-out: EC50 for inhibition of SARS-CoV-2 induced cytotoxicity
[14] = 45 mg/kg daily intraperitoneal from 24 hours after infection

SMILES: O=c1sc2cc(CCCF)ccc2n1CCN1CCCCCC1 [CM304]
- phospholipidosis level (H23 cells): highest mean levels of phospholipidosis
- reduction of cytopathic effects (CPE) by microscopy (SARS-CoV-2 [1]): unable to visibly reduce CPE
- more virus detected (RNA levels) compared to the 48 hours DMSO control (SARS-CoV-2 [2]): 61.2%
- inhibition of SARS-CoV-2-induced cytotoxicity (SARS-CoV-2 [3]): insignificant viral inhibition

SMILES: COc1cccc2c1CCCC2CCCN1CCN(C2CCCCC2)CC1 (centres unmarked) [PB28]
- in vivo efficacy (SARS-CoV-2 [4]): ineffective
- in vivo toxicity (SARS-CoV-2 [4]): toxic
- in vitro SARS-CoV-2 inhibitory effects (SARS-CoV-2 [5]): sub-nanomolar

SMILES: CCC(CC)COC(=O)[C@H](C)N[P@](=O)(OC[C@H]1O[C@@](C#N)(c2ccc3c(N)ncnn23)[C@H](O)[C@@H]1O)Oc1ccccc1 [remdesivir]
- reported SI (CC50/EC50) (SARS-CoV-2 [6]): > 4.96

SMILES: COc1ccc(CCN2CCN(CCCc3ccccc3)CC2)cc1OC [SA4503, cutamesine, reference compound]
- reduction of cytopathic effects (CPE) by microscopy (SARS-CoV-2 [1]): unable to visibly reduce CPE
- preference for sigma-1 over sigma-2 (sigma-1 over sigma-2): > 15 fold
- Cytotoxicity CC50 (Vero E6 cells): 198.7 µg/mL
- viral replication reduced by (qPCR) (SARS-CoV-2 [2]): 56.2%
- Cytotoxicity EC50 (inhibition of SARS-CoV-2-induced cytotoxicity) (SARS-CoV-2 [3]; LDH release): 110.5 µg/mL
- EC50 (SARS-CoV-2 [3]; read-out: EC50 for inhibition of SARS-CoV-2 induced cytotoxicity, LDH release): 300 µM

SMILES: CC(CCCn1c(=O)sc2cc(F)ccc21)N1CCN(C2CCCCC2)CC1 (centres unmarked) [AZ66]
- decrease of SARS-CoV-2 concentration (TCID50) (SARS-CoV-2 [7]; 50 μg/ml): ~3 log
- EC50 (SARS-CoV-2 [8]; read-out: EC50 by plaque reduction assay): 15.9 µM
- EC50 (SARS-CoV-2 [8]; read-out: Plaque reduction EC50): 6.46 µg/mL
- Plaque reduction EC50 (SARS-CoV-2 [8]): 6.47 µg/mL
- reduction of cytopathic effects (CPE) by microscopy (SARS-CoV-2 [1]): greatly reduce cytopathic effects
- EC50 (SARS-CoV-2 [9]; [12]): 45.1 µg/mL
- EC50 (SARS-CoV-2 [9]; [13]): 86.4 µM
- weight loss associated with COVID-19 (SARS-CoV-2 [10]; [14]): delayed weight loss
- CC50 at 72 h [11]: 128 µg/mL (≈ 315 µM)
- viral replication reduced by (qPCR) (SARS-CoV-2 [2]): 99.9%
- viral replication reduction (qPCR) (SARS-CoV-2 [2]): 3 log

SMILES: COc1cc2c(cc1OC)CN(CCCCn1c(=O)n(C)c3ccccc31)CC2 [CM398, 1-(4-(6,7-Dimethoxy-3,4-dihydroisoquinolin-2(1H)-yl)butyl)-3-methyl-1H-benzo[d]imidazol-2(3H)-one]
- decrease of SARS-CoV-2 concentration (TCID50) (SARS-CoV-2 [7]; 100 μg/ml): ~1 log
- reduction of cytopathic effects (CPE) by microscopy (SARS-CoV-2 [1]): greatly reduce cytopathic effects
- EC50 (SARS-CoV-2 [9]; [12]): 51.3 µg/mL
- EC50 (SARS-CoV-2 [9]; [13]): 130 µM
- weight loss associated with COVID-19 (SARS-CoV-2 [10]; [14]): delayed weight loss
- median survival (SARS-CoV-2 [10]; 45 mg/kg daily intraperitoneal from 24 hours after infection, saline 5.5 days, not statistically significant): 6.5 days
- survival and recovery (SARS-CoV-2 [10]; 45 mg/kg daily intraperitoneal, group of 5 mice): One mouse in the CM398 group survived and regained all weight lost
- CC50 at 72 h [11]: 111 µg/mL (≈ 280 µM)
- viral replication reduced by (qPCR) (SARS-CoV-2 [2]): 97.5%

SMILES: CN(C)CCOC(c1ccccc1)c1ccccc1 [diphenhydramine, reference compound]
- decrease of SARS-CoV-2 concentration (TCID50) (SARS-CoV-2 [7]; 40 μg/ml): ~2 log
- EC50 (SARS-CoV-2 [9]; [12]): 122 µg/mL
- EC50 (SARS-CoV-2 [9]; [13]): 418 µM
- reduction of N-protein RNA copies (qPCR) (SARS-CoV-2 [2]): 32.2%
